Laboratory results from PubChem BioAssay (NCI).
Values joined by “and” are separate entries in the source; they are usually repeats but may differ in a detail not shown here. Equal entries are not always repeated.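 Method: 48-hour compound exposure of cells in 96-well plates, five concentrations, linear interpolation of endpoints. TGI marks complete inhibition of growth.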

Assays:
Assay in all cases: growth of human tumour cells (NCI), 48 h
PC-3 prostate = test system: PC-3 prostate
OVCAR-4 ovarian = test system: OVCAR-4 ovarian
SF-268 CNS = test system: SF-268 CNS
OVCAR-8 ovarian = test system: OVCAR-8 ovarian
HL-60(TB) leukemia = test system: HL-60(TB) leukemia
NCI-H522 lung = test system: NCI-H522 lung
SK-MEL-2 melanoma = test system: SK-MEL-2 melanoma
SW-620 colon = test system: SW-620 colon
HOP-92 NSCLC = test system: HOP-92 NSCLC
SNB-75 CNS = test system: SNB-75 CNS
MOLT-4 leukemia = test system: MOLT-4 leukemia
U251 CNS = test system: U251 CNS
MDA-MB-231 breast = test system: MDA-MB-231 breast
CAKI-1 renal = test system: CAKI-1 renal
OVCAR-3 ovarian = test system: OVCAR-3 ovarian
HCC-2998 colon = test system: HCC-2998 colon

Structure (SMILES) | TGI (PC-3 prostate) | TGI (OVCAR-4 ovarian) | TGI (SF-268 CNS) | TGI (OVCAR-8 ovarian) | TGI (HL-60(TB) leukemia) | TGI (NCI-H522 lung) | TGI (SK-MEL-2 melanoma) | TGI (SW-620 colon) | TGI (HOP-92 NSCLC) | TGI (SNB-75 CNS) | TGI (MOLT-4 leukemia) | TGI (U251 CNS) | TGI (MDA-MB-231 breast) | TGI (CAKI-1 renal) | TGI (OVCAR-3 ovarian) | TGI (HCC-2998 colon)
Cc1ccc(S(=O)(=O)NC(=O)NCC(=O)O)cc1 | > 100 µM | > 100 µM | > 100 µM | > 100 µM | > 100 µM | > 100 µM | > 100 µM | > 100 µM | > 100 µM | > 100 µM | > 100 µM | > 100 µM | > 100 µM |  |  | 
CSc1nc(Cl)c2c(n1)Sc1nc3ccccc3n1N=C2 | 48 µM | > 100 µM | > 100 µM | 36.4 µM |  | 39.4 µM | > 100 µM | 29.3 µM | 45.2 µM | 71.5 µM | 63.2 µM | > 100 µM | 50.9 µM | 72.5 µM | 75.8 µM | 60.9 µM
COC1=CC(=O)C2C(C1=O)[C@@H]1c3ccccc3OC[C@H]21 (stereo not given in full) |  | > 100 µM | > 100 µM | > 100 µM | > 100 µM | > 100 µM | > 100 µM | > 100 µM | > 100 µM | > 100 µM | > 100 µM | > 100 µM |  | > 100 µM | > 100 µM | > 100 µM
COC(=O)C(=O)C(C(=O)C(=O)Nc1nc(=S)[nH][nH]1)c1nc2ccc([N+](=O)[O-])cc2[nH]c1=O (stereo not given) | > 100 µM | > 100 µM | > 100 µM | > 100 µM | > 100 µM | > 100 µM | > 100 µM | > 100 µM | > 100 µM | > 100 µM |  | > 100 µM | > 100 µM | > 100 µM | > 100 µM | > 100 µM
CC(C)(C)OC(=O)CC(NC(=O)OC(C)(C)C)C(=O)Oc1ccc([N+](=O)[O-])cc1 (stereo not given) | > 100 µM | > 100 µM | > 100 µM | > 100 µM |  | > 100 µM | > 100 µM | > 100 µM | > 100 µM | > 100 µM | > 100 µM | > 100 µM | > 100 µM | > 100 µM | > 100 µM | 
Fc1ccc(C(OCCN2CCC3CCC(C2)N3C/C=C/c2cccnc2)c2ccc(F)cc2)cc1 (stereo not given) | 21.8 µM | 30.2 µM | 26.2 µM | 25.9 µM |  | 27 µM | 26.5 µM | 23.1 µM | 27 µM | 27.9 µM | 14.9 µM | 24.4 µM | 26.6 µM | 26.1 µM | 29.5 µM | 15.6 µM
NC(N)=N/N=C/c1c(-c2ccc(Cl)cc2)nc2n1CCS2 | 18.2 µM | 28.6 µM | 25.3 µM | 29.5 µM | > 100 µM | 28.7 µM | 24.2 µM | 21 µM | 22.6 µM | 26.2 µM | 17.3 µM | 28.5 µM |  | 28 µM | 22.1 µM | 8.39 µM
OCC(O)C(O)C(C=NNc1ncnc2ccc(Br)cc12)=NNc1ncnc2ccc(Br)cc12 (stereo not given) | 77.4 µM and > 100 µM | 23.7 µM and > 100 µM | 25 µM and > 100 µM | 46.9 µM and > 100 µM | > 100 µM | 11.3 µM and 35.9 µM | 12.1 µM and > 100 µM | > 100 µM | 10.4 µM and > 100 µM | 17.6 µM and > 100 µM | 12.1 µM and > 100 µM | 67.3 µM and > 100 µM | 31.3 µM and > 100 µM |  | 28.2 µM and > 100 µM | 
